Reference: patent publication US20080139558A1, “QUINOLONES USEFUL AS INDUCIBLE NITRIC OXIDE SYNTHASE INHIBITORS” (KALYPSYS, INC., priority 2006, published 2008)

Target: T1, human iNOS (Homo sapiens, UniProt P35228)
T1 construct: expressed in transfected cells; host or cells: HEK293
Assay: DAN assay of nitric oxide production (hiNOS)
Format: cell-based
Details: enzyme expressed in HEK293 cells transiently transfected with human iNOS
Outline: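 Human iNOS transiently expressed in HEK293 cells; NO production quantified as nitrite via 2,3-diaminonaphthalene reaction forming fluorescent naphthotriazole.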

T1 sequence (P35228 whole entry): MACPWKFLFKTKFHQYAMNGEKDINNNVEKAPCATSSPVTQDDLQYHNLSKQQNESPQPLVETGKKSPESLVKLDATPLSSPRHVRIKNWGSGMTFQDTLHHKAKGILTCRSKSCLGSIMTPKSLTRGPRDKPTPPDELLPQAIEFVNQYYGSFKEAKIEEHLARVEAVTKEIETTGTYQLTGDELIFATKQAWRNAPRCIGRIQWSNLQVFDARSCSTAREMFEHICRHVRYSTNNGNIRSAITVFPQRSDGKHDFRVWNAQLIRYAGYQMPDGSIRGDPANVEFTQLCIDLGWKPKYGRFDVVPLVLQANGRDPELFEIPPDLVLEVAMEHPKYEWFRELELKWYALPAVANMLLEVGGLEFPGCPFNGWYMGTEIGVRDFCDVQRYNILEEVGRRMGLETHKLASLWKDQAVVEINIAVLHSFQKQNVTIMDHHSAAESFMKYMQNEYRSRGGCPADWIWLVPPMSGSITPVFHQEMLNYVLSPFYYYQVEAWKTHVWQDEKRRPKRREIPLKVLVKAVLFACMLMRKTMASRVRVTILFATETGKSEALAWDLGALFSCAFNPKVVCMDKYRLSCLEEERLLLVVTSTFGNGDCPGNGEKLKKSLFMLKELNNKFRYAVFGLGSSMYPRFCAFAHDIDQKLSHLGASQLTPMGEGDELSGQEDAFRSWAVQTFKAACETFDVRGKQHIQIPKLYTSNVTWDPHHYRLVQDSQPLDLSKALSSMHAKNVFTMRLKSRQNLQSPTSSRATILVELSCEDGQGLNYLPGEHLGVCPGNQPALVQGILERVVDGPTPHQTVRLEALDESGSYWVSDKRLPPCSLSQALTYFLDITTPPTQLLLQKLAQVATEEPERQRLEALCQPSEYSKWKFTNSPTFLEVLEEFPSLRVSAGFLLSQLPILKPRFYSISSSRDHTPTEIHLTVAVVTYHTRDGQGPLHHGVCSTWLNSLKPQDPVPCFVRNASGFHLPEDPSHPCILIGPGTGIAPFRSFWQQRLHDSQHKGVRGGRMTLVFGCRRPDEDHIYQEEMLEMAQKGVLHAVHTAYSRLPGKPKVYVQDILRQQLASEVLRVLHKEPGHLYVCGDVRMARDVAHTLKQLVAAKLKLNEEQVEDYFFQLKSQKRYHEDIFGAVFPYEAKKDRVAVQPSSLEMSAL

Compound | EC50 [µM]
O=c1cc(Cn2cnc(-c3ccccc3)c2)c2ccc(F)c(F)c2[nH]1 [Example 260, 7,8-Difluoro-4-((4-phenyl-1H-imidazol-1-yl)methyl)quinolin-2(1H)-one] | > 5
O=c1cc(CN(c2cccc(Cl)c2)S(=O)(=O)c2cccnc2)c2ccc(F)c(F)c2[nH]1 [Example 261, N-(3-chlorophenyl)-N-((7,8-difluoro-2-oxo-1,2-dihydroquinolin-4-yl)methyl)pyridine-3-sulfonamide] | ≤ 5
Cc1nc(S(=O)(=O)N(Cc2cc(=O)[nH]c3c(F)c(F)ccc23)c2cccc(Cl)c2)cn1C [Example 265, N-(3-Chlorophenyl)-N-((7,8-difluoro-2-oxo-1,2-dihydroquinolin-4-yl)methyl)-1,2-dimethyl-1H-imidazole-4-sulfonamide] | ≤ 5

The remaining lines, values ahead:

EC50 [µM] | Compound
≤ 5 | COc1cccc(N(Cc2cc(=O)[nH]c3c(F)cccc23)C(=O)c2scnc2C)c1 [Example 262, N-((8-Fluoro-2-oxo-1,2-dihydroquinolin-4-yl)methyl)-N-(3-methoxyphenyl)-4-methylthiazole-5-carboxamide]
≤ 5 | Cc1ncsc1C(=O)N(Cc1cc(=O)[nH]c2c(F)c(F)ccc12)c1cccnc1 [Example 263, N-((7,8-Difluoro-2-oxo-1,2-dihydroquinolin-4-yl)methyl)-4-methyl-N-(pyridin-3-yl)thiazole-5-carboxamide]
> 5 | Cc1ncsc1C(=O)N(Cc1cc(=O)[nH]c2c(F)c(F)ccc12)c1ccccn1 [Example 264, N-((7,8-Difluoro-2-oxo-1,2-dihydroquinolin-4-yl)methyl)-4-methyl-N-(pyridin-2-yl)thiazole-5-carboxamide]
